Common to all, as to assay: NCI tumour cell line growth inhibition, 48 h
For experiment [1], the system named is M14 melanoma.
The test system of experiment [2] is SK-OV-3 ovarian.
The test system of experiment [3] is HS 578T breast.
Experiment [4] relates to HCT-15 colon.
In experiment [5] the test system is TK-10 renal.
In experiment [6] the test system is SW-620 colon.
In experiment [7] the test system is HT29 colon.
For experiment [8], the system named is UACC-62 melanoma.
The subject of experiment [9] is OVCAR-3 ovarian.
For experiment [10], the system named is EKVX NSCLC.

SMILES strings stand for the structures. Several values for one entry are separate records, joined by “and”; a condition that tells them apart may be missing. Equal entries are not always repeated.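 The compound was tested at five concentrations on cells cultured in 96-well plates, with a 48-hour exposure period. The concentration for 50% growth inhibition is given as GI50. TGI: total growth inhibition.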 Where only a bound is given, the exact number is not on record here.

Regarding `O=C1c2ccc3c4c(ccc(c24)C(=O)N1CCCNCc1ccccc1)C(=O)N(CCCNCc1ccccc1)C3=O`, the GI50 is 0.161 µM in experiment [1]; 0.285 µM in experiment [2]; 0.531 µM in [3]; 0.116 µM in experiment [4]; 0.119 µM in experiment [5]; 0.0758 µM in experiment [6]. The GI50 in experiment [7] is 0.0421 µM; in experiment [8], 0.18 µM; in [9] it was 0.13 µM; in [10] it was 0.165 µM. The TGI in [1] turned out to be 0.307 µM; in experiment [2] it was 0.82 µM; in experiment [3] it was 3.24 µM; in experiment [4], 0.316 µM; in [5] it was 0.413 µM; in experiment [6], 0.326 µM. Moreover, the TGI stood at 0.231 µM in experiment [7], 0.333 µM in experiment [8], 0.476 µM in [9] and 0.323 µM in experiment [10].
Take `COc1cc2cn3c4ccc(O)cc4nc(N)c3c2cc1OC`: the GI50 is 0.167 µM in experiment [1]; 0.211 µM in experiment [2]; 0.626 µM in experiment [3]; 0.721 µM in experiment [4]; 1.54 µM in experiment [5]; 0.119 µM in [6]. For the same molecule, the GI50 in [7] is 0.714 µM; in experiment [8], 0.0705 µM; in [9], 0.231 µM; in [10] it was 2.79 µM. Besides, the TGI is 8.33 µM in [1]; 10.8 µM in experiment [2]; 22.2 µM in experiment [3]; 12.1 µM in [4]; 9.55 µM in experiment [5]; 16 µM in experiment [6]. In addition, the TGI in [7] was 4.57 µM; in experiment [8], 1.63 µM; in [9] it was 3 µM; in [10] it was 15.4 µM.
With `COc1ccc2[nH]c3c(C)c4cc[n+](C)cc4c(C)c3c2c1`, the GI50 in [1] was 16.1 µM and 12.9 µM and 2.33 µM; in experiment [2] it was 4.31 µM and 1.57 µM; in [5], 12.4 µM and 24.3 µM and 5.65 µM; in experiment [6], 0.28 µM; in [7], 2.52 µM and 1.97 µM; in [8], 1.28 µM and 7.39 µM. Moreover, the GI50 in experiment [9] is 0.246 µM; in [10] it was 0.63 µM. The TGI was 85.3 µM and 29.8 µM in experiment [1]; 1.13 µM and 0.759 µM in experiment [3]; > 100 µM and 110 µM and > 250 µM in experiment [4]; 89.2 µM and > 163 µM in experiment [5]; 60.2 µM [middle of 4 runs] in [7].
In the case of `COc1nc2c(cc1S(=O)(=O)c1ccccc1)CCc1c-2cnn1Cc1ccccc1`, the GI50 is over 100 µM in experiment [1]; 9.86 µM in experiment [2]; 13.3 µM in experiment [3]; 7.99 µM in experiment [4]; over 100 µM in experiment [5]; over 100 µM in [6]. Also, the GI50 is 3.89 µM in experiment [7], 7.52 µM in experiment [8], 9.35 µM in experiment [9] and 14 µM in [10]. Moreover, the TGI in [1], in experiment [2], in experiment [3], in experiment [4], in experiment [5] and in experiment [6] was over 100 µM each time. Also, the TGI in [7], in experiment [8], in experiment [9] and in experiment [10] was over 100 µM in each case.
As for `Cc1ccc(Nc2[nH]c(C(=O)c3ccc(Cl)cc3)c(N)c2C(=S)Nc2ccccc2)nc1`, the GI50 in experiment [1] was 77.8 µM; in [2] it was 52.3 µM; in experiment [3] it was 21.8 µM; in experiment [4] it was 31 µM; in [5], 28.1 µM; in experiment [6] it was 32.7 µM. Further, the GI50 in experiment [7] is 57.8 µM; in experiment [8], 15.3 µM; in [9], 29.4 µM; in experiment [10] it was 35.5 µM. The TGI in [1] is over 100 µM; in experiment [2], over 100 µM; in [3] it was 76.2 µM; in experiment [4], over 100 µM; in experiment [5], over 100 µM; in experiment [6], over 100 µM. Besides, the TGI is over 100 µM in [7], 41 µM in experiment [8], 74 µM in [9] and over 100 µM in experiment [10].
Take `C[C@@H]1[C@H]2[C@H](C=C3[C@@H]4CC[C@H]5Cc6nc7c(nc6C[C@]5(C)[C@H]4C[C@@H](O)[C@@]32C)C[C@@H]2CC[C@H]3C4=C[C@@H]5O[C@@]6(CC[C@](C)(CO)O6)[C@@H](C)[C@@]5(O)[C@@]4(C)[C@H](O)C[C@@H]3[C@@]2(C)C7)O[C@]12CCC(C)(C)O2`: the GI50 is 1.22 µM in experiment [1]; 0.472 µM in [2]; 0.165 µM in [3]; 0.43 µM in [4]; 13.3 µM in experiment [5]; 0.711 µM in experiment [6]. Moreover, the GI50 was 0.34 µM in experiment [7], 0.348 µM in experiment [8], 5.1 µM in experiment [9] and 0.377 µM in experiment [10]. Further, the TGI was found to be 10.5 µM in experiment [1]; 5.29 µM in [2]; 0.89 µM in [3]; 8.14 µM in [4]; 72.5 µM in [5]; 7.92 µM in experiment [6]. Besides, the TGI in [7] was determined as 2.47 µM; in experiment [8] it was 2.54 µM; in [9], 31.8 µM; in [10], 14.1 µM.
With `O=c1c2[nH]c3ccccc3c2nc2n1CCS2`, the GI50 is over 100 µM in experiment [1]; over 100 µM in [2]; 26.9 µM in experiment [3]; 68.5 µM in [4]; over 100 µM in experiment [5]; over 100 µM in experiment [6]. The GI50 was over 100 µM in experiment [7], 92.7 µM in experiment [8], over 100 µM in experiment [9] and 23.6 µM in experiment [10]. In addition, the TGI in experiment [1], in experiment [2], in [3], in [4], in experiment [5] and in [6] was over 100 µM each time. Also, the TGI in experiment [7], in experiment [8], in experiment [9] and in experiment [10] was over 100 µM each time.
Take `CN(C)CCN1C(=O)c2cccc3c(N)ccc(c23)C1=O`: the GI50 in experiment [1] is 11.3 µM; in [2] it was 15.9 µM; in experiment [3], 15.7 µM; in [4] it was 9.32 µM; in experiment [5], 9.15 µM; in experiment [6], 10.1 µM. Moreover, the GI50 is 9.06 µM in [7], 7.39 µM in experiment [8], 15.9 µM in experiment [9] and 14.2 µM in experiment [10]. Besides, the TGI in experiment [1], in experiment [2], in [3], in experiment [4], in experiment [5] and in experiment [6] was over 25 µM each time. Also, the TGI in experiment [7], in experiment [8], in experiment [9] and in [10] was over 25 µM throughout.
Consider `Cc1c2cnccc2c(C)c2c1c1cc(C(=O)O)ccc1n2C`, for which the GI50 in experiment [1] was 1.3 µM; in [2], 0.905 µM; in experiment [3], 0.891 µM; in experiment [4], 0.804 µM; in [5], 1.79 µM; in [6] it was 0.49 µM. Besides, the GI50 in [7] was 0.856 µM; in experiment [8] it was 0.546 µM; in [9], 1.35 µM; in [10] it was 1.53 µM. The TGI in [1] came out at 3.74 µM; in [2], 7.63 µM; in [3], 4.82 µM; in experiment [4], 7.82 µM; in experiment [5], 8.96 µM; in experiment [6], 6.7 µM. In addition, the TGI stood at 6.15 µM in experiment [7], 2.12 µM in [8], 5.68 µM in experiment [9] and 5.74 µM in experiment [10].
On to `CC(N)(Cc1c[nH]c2ccccc12)C(=O)O` (stereo not drawn), for which the GI50 in experiment [1] was over 2500 µM; in experiment [2] it was over 2500 µM; in experiment [3], 1090 µM; in experiment [4], over 2500 µM; in experiment [5] it was over 2500 µM; in experiment [6] it was over 2500 µM. Also, the GI50 in experiment [7], in [8], in experiment [9] and in [10] was over 2500 µM throughout. Also, the TGI in [1], in experiment [2], in [3], in experiment [4], in experiment [5] and in [6] was over 2500 µM each time. For the same molecule, the TGI in experiment [7], in [8], in experiment [9] and in experiment [10] was over 2500 µM throughout.
For `CCc1nc(-n2c(CC)nc3ccccc3c2=O)nc(N)c1-c1ccc(Cl)cc1`, the GI50 in [1] is 52.6 µM; in experiment [2] it was over 100 µM; in [3], 48.4 µM; in experiment [4] it was 8.91 µM; in experiment [5], 35.6 µM; in experiment [6], 5.42 µM. For the same molecule, the GI50 in experiment [7] is 16.2 µM; in experiment [8], 5.46 µM; in [9] it was 31.8 µM; in [10] it was 99 µM. For the same molecule, the TGI in experiment [1], in experiment [2], in experiment [3], in experiment [4], in [5] and in experiment [6] was over 100 µM in each case. Besides, the TGI in [7], in experiment [8], in experiment [9] and in experiment [10] was over 100 µM in each case.

Source of the values: PubChem BioAssay (NCI).
